The nature of data set [1]: partition coefficient based on HPLC. The class given is physicochemical. Particulars: mobile phase 50 mM triethylamine phosphate (pH 7.2)/acetonitrile=40/60, formula (4). As for the experimental part: The partition coefficient by HPLC (hereinafter referred to as log PHPLC) was measured by the following method.
First, compounds for evaluation shown in Table 5 were dissolved at a concentration of 1 mg/mL in methanol containing 10% dimethylsulfoxide to prepare sample solutions. One μL of the sample solution was subjected to HPLC analysis under the following conditions to determine the elution time (tO) of the solvent and the elution time (tR) of each compound.
Column: Prodigy ODS (3) (product name; manufactured by phenomenex; size: 4.6×250 mm)
Mobile phase: a mixed solution of 50 mM triethylamine phosphate (pH 7.2)/acetonitrile=40/60
Detector: ultraviolet visible absorptiometer (detection wavelength: 282 nm)
Using the obtained tO and tR, the retention factor (hereinafter referred to as K′HPLC value) of each compound for evaluation was determined according to the calculation formula (3). K′HPLC=(tR−t0)/t0 (3) […]
Using K′HPLC obtained for each compound for evaluation, the log PHPLC value of each compound for evaluation was determined according to the above calculation formula (4).

The target of data set [2] is T1, amyloid (aggregated Aβ1-40) (Homo sapiens, UniProt P05067).
T1 construct: purchased Peptide Institute, INC
Description: in vitro amyloid binding test (inhibition of [125I]3′-I-BTA-0 binding). The note with it: [125I]3′-I-BTA-0 400 pmol/L, amyloid 1 μmol/L, 0.1% BSA phosphate buffer pH 7.4, 22°C, 3 hours. As for the experimental part:
The resulting samples were placed in each well (about 0.3 mL in volume) of a 96-well microplate.
The measured radioactivity level was defined as the background radioactivity level, and used in the calculation of the inhibition ratio (hereinafter referred to as BG).
(9) Using the radioactivity levels measured above in (7) and (8), the inhibition ratio was determined by the following formula (1).
A graph in which values converted by probit transformation from the obtained inhibition ratios were plotted relative to logarithms of concentrations of compounds for evaluation was prepared to obtain an approximate straight line by the least square method. Using the line, the concentration of each compound for evaluation was determined, at which the radioactivity level is half of the level of the sample free from each compound for evaluation, and was defined as a 50% inhibition concentration of each compound (hereinafter referred to as IC50% value).

In data set [3] the test system is Salmonella typhimurium TA100. The data set is described as follows: reverse mutation test (Ames test), TA100. The class given is cell-based. As for the experimental part:
(§1) In order to examine mutagenicity of Compound 1, Compound 2 and Compound 3, reverse mutation test using Salmonella typhimurium TA98 and TA100 (hereinafter referred to as Ames test) was conducted.
(§2) The test was conducted without addition of S9mix and with addition of S9mix. Dimethylsulfoxide was used as a negative control. A positive control was 2-(2-furyl)-3-(5-nitro-2-furyl)acrylamide in case S9mix was not added, and 2-aminoanthracene in case S9 mix was added.
(§3) The amount of each sample to be added to the test plate was 7 dosages (geometric ratio 4) with the maximum dose being 1250 μg/plate for Compound 1, and 7 dosages (geometric ratio 3) with the maximum dose being […] for Compound 2 and Compound 3. After a sample to be examined and a strain (TA98 or TA100), or a sample to be examined, S9mix and the strain were mixed together, the mixture was multilayered using soft agar on a medium of a test plate, and then incubated at 37° C. for 48 hours.
Background: The Ames test detects mutagens through reverse mutation in bacteria.

The test system of data set [4] is Salmonella typhimurium TA98 and TA100. The data set is described as follows: Ames test, overall judgment. The class given is cell-based. Particulars: regardless of addition of S9mix. As for the experimental part: as §1, §2, §3
Data set [5] concerns Salmonella typhimurium TA98. The data set is described as follows: reverse mutation test (Ames test), TA98. The data set is classed as cell-based. As for the experimental part:
as §1, §2, §3

For data set [6] the following is noted: [125I]-labeled, normal mice, cited from earlier work; for transfer into brain: 2 minutes after administration.
Data set [7] is described as follows: partition coefficient based on the octanol extraction method. The class given is physicochemical. Particulars: octanol / 10 mmol/L phosphate buffer (pH 7.4), radioactivity. The method, then:
Partition coefficients based on the octanol extraction method (hereinafter referred to as log Poctanol) were measured, which are generally used as an indicator of permeability of compounds through the blood-brain barrier (hereinafter referred to as BBB).
To 2 mL of octanol, 10 μL of a solution containing Compound 4 (Example 5) and 2 mL of a 10 mmol/L phosphate buffer (pH 7.4) were added and stirred for 30 seconds. After the mixture was centrifuged (2000 rpm×60 min.) with a low-speed centrifuge (model: […] CT4D manufactured by Hitachi Koki Co., Ltd.), the octanol layer and the water layer were sampled each in an amount of 1 mL, and subjected to measurement of radioactivity with an autowell gamma system (manufactured by Aloka, Type: ARC-301B). Using the obtained radioactivity, log Poctanol was calculated in accordance with the equation (2).

A short description of data set [8]: transferability into brain and clearance. The note with it: rats, intravenous injection. The method, then:
Using Compound 4, a time course change of radioactive accumulation in brain of male Wistar rats (7-week old) was measured.
The rats were sacrificed by bleeding from abdominal artery, and brains were removed and subjected to measurement of radioactivity (hereinafter referred to as A in this Example) with an autowell gamma system (Type: ARC-301B manufactured by Aloka Co., Ltd.) and further subjected to measurement of mass of brains 2, 5, 30 and 60 minutes after the injection. Also, radioactivity (hereinafter referred to as B in this Example) of 0.05 mL of a 1000-fold diluted solution of the injected solution was measured in the same manner as above. Using these measurement results, radioactive distributions per unit weight of brain (% ID/g) at the respective time points were calculated in accordance with the following formula (5). Three animals were used for experiment at the respective time points.

The conditions of data set [9]: [11C]-labeled, rats; cited from earlier work.
For data set [10], the system named is amyloid. The note with it: [125I]-labeled; cited from earlier work.
Setting [11] is: TA100, without addition of S9mix.
Setting [12] is: TA98, without addition of S9mix.

Like-named read-outs stand apart in the source and are kept apart here.

T1 sequence (P05067 672-711 limits assumed): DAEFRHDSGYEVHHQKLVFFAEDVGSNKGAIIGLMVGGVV

`FCCCOc1ccc(-c2cn3ccccc3n2)cc1` [Compound 3, 2-[4′-(3″-fluoropropoxy)phenyl]imidazo[1,2-a]pyridine]: the chromatographic logP in data set [1] (read-out: logPHPLC value) came out at 1.7. Besides, the half-inhibitory concentration (IC50) (as a rule, the concentration needed to halve the response being measured) in data set [2] was found to be 36.6 nM. Further, the Mutagenicity result was “Negative” in data set [3] (TA100, with addition of S9mix); “Negative” in data set [3] (setting [11]); “Negative” in data set [5] (TA98, with addition of S9mix); “Negative” in [5] (setting [12]). Moreover, in data set [4], the Ames test judgment result is listed as “negative”.

With `CN(C)c1ccc(-c2nc3ccc(I)cc3o2)cc1` [IBOX, 6-iodo-2-[4′-(N,N-dimethylamino)phenyl]benzoxazole], in [6], the transfer into brain result is on record as “transferred into brain” and the “clearance from normal tissues” value is listed as “insufficient in clearance from normal tissues”.

Turning to `Nc1c(/N=N/c2ccc(-c3ccc(/N=N/c4cc(S(=O)(=O)O)c5ccccc5c4N)cc3)cc2)cc(S(=O)(=O)O)c2ccccc12` [Congo Red, reference compound], in data set [2], the IC50 is above 1000 nM.

The molecule `Oc1ccc2nc(-c3ccc(OCCCF)cc3)cn2c1` [Compound 2, 2-[4′-(3″-fluoropropoxy)phenyl]-6-hydroxyimidazo[1,2-a]pyridine] came in with an IC50 in [2] of 30.5 nM. The Mutagenicity result is “Negative” in data set [3] (TA100, with addition of S9mix); “Negative” in data set [3] (setting [11]); “Negative” in data set [5] (TA98, with addition of S9mix); “Negative” in [5] (setting [12]). Further, the Ames test judgment result in data set [4] is listed as “negative”.

Take `CN(C)c1ccc(-c2nc3ccc(I)cc3s2)cc1` [TZDM, 6-iodo-2-[4′-(N,N-dimethylamino)phenyl]benzothiazole]: in data set [6], the transfer into brain result is recorded as “transferred into brain” and the “clearance from normal tissues” value is “insufficient in clearance from normal tissues”.

For the molecule `CN(C)c1ccc(/C=C/c2ccc(I)cc2)cc1` [m-I-SB, (E)-4-dimethylamino-4′-iodostilbene], in data set [6], the transfer into brain result was “transferred into brain” and the “clearance from normal tissues” value is “insufficient in clearance from normal tissues”.

Consider `CN(C)c1ccc(-c2cn3cc([123I])ccc3n2)cc1` [[^123I]-IMPY, reference compound], for which the logPoctanol value in data set [7] came out at 2.1. The “Radioactive concentration per unit weight in brain” value was determined as 1.02 % ID/g in data set [8] (after 2 min.), 0.99 % ID/g in [8] (after 5 min.), 0.20 % ID/g in [8] (after 30 min.) and 0.08 % ID/g in [8] (after 60 min.).

With `CNc1ccc(/C=C/c2ccc(O)cc2)cc1` [SB-13, (E)-4-methylamino-4′-hydroxystilbene], the “clearance from normal tissues” value in data set [9] is recorded as “it cannot be said that the clearance is sufficiently fast”.

Turning to `COc1ccc2nc(-c3ccc(OCCCF)cc3)cn2c1` [Compound 1, 2-[4′-(3″-fluoropropoxy)phenyl]-6-methoxyimidazo[1,2-a]pyridine], in [2], the IC50 is 1.1 nM. Also, the Mutagenicity entry is “Negative” in data set [3] (TA100, with addition of S9mix); “Negative” in data set [3] (setting [11]); “Negative” in data set [5] (TA98, with addition of S9mix); “Negative” in data set [5] (setting [12]). Besides, in data set [4], the Ames test judgment result is recorded as “negative”.

Molecule `CN(C)c1ccc(-c2cn3cc(I)ccc3n2)cc1` [IMPY, 6-iodo-2-[4′-(N,N-dimethylamino)phenyl]imidazo[1,2-a]pyridine] gave a logPHPLC value in [1] of 2.1. For the same molecule, in data set [10], the “clearance from normal tissues” value was “rapid clearance from normal tissues”; the “transfer to brain and accumulation at amyloid after administration” value was “transferring to brain and accumulating at amyloid”.
